Source: patent publication US5567693A, “Method for inhibiting angiogenesis, proliferation of endothelial or tumor cells and tumor growth” (American Cyanamid Company, priority 1994, dated 1996)
Values joined by “and” are separate entries in the source; they are usually repeats but may differ in a detail not shown here. Equal entries are not always repeated. Structures can show the parent of a compound that is named as a salt. Where two headings read alike, the source gives them in different places.

Columns and labels:
CACO2 = assay: Antiproliferative activity in human tumor cell lines: CACO2 (colon); type: cell-based; settings: CACO2 colon tumor, PROTOCOL 1 and PROTOCOL 2, 48 hours
Method: (§1) The antiproliferative activity of the compounds of Formula I in an Adult Bovine Aortic Endothelial (ABAE) cell line and in Human Tumor cell lines is evaluated in three similar assays that measure growth inhibition. The assays are identified as follows:
(§2) PROTOCOL 1,2,and 3 are described in greater detail hereinbelow. In general, according to PROTOCOLS 1 and 2, the target ABAE and/or Human Tumor cells are exposed to the compounds of Formula I for 48 hours. PROTOCOL 3 exposes ABAE cells to the compounds for 4 days. A detailed description of the protocols is as follows:
(§3) The antiproliferative activity of the compounds of Formula I of the present invention is evaluated in a panel comprised of human tumor cell lines and an adult bovine aortic endothelial cell line (ABAE). The human tumor cell lines are from
(§4) All cell lines are maintained in log phase in RPMI 1640 media, supplemented with 5% fetal calf serum, penicillin/streptomycin and 2 mM L-glutamine. Cultures are renewed after 20 passages with cells from a fresh stock of batch-frozen early passage cells. Cell lines are routinely checked for mycoplasma contamination (Genprobe). In a laminar flow hood, cells (1-5×10^4) are plated into 96-well microtiter plates in a volume of 0.1 ml/well with a bulk microtiter dispenser (Denley). […] At this concentration, dimethylsulfoxide has no effect on cell growth. Compounds are added using a Tomtec dispenser which simultaneously dispenses from one 96-well plate, containing the drug dilutions, to the plates containing the cells. After two days of continuous drug exposure, 50% cold trichloroacetic acid (TCA) is added to 10% final concentration to fix the cells, and after 60 minutes at 4° C., the TCA is aspirated and the plates are washed 5 times with deionized water using a microtiter plate washer. The number of cells on the plate are quantitated using a protein dye-binding assay (Monks et al., 1991). A 0.4% solution of the dye, sulforhodamine B, in glacial acetic acid is added to the plates, and the plates are washed 5 times with 1% glacial acetic acid using the automatic plate washed. The bound stain is solubilized with 0.1 ml of 10 mM Tris base. The optical densities are read from an automatic spectrophotometric plate reader (Dynatech) directly to a main frame computer (VAX 8600).
(§5) Positive controls, that include standard chemotherapeutic drugs (i.e., Adriamycin, Cisplatin, etc.), are included in every experiment.
(§6) Background optical density measurements (complete media-cells, and complete media+drug-cells) are automatically subtracted from the appropriate control and test wells. Mean values and standard errors are determined from duplicate wells. A measure is also made of the optical density at time when the drugs are added. The number of cells after treatment (P), as % of control, is calculated for every concentration of drug, as follows: [formula] wherein: T is optical density measurement for treated cells after 48 hours;
(§7) C is optical density measurement for untreated cells after 48 hours;
(§8) Co is optical density measurement for cells at the time of drug addition.
(§9) IC50 of growth inhibition is calculated from the sets of P values using the RS-1 data package (BBN Software).
(§10) The antiproliferative activity of the compounds of Formula I is evaluated in a panel comprised of human tumor cell lines and an adult bovine aortic cell line (ABAE) as listed in PROTOCOL 1. This assay is a modification of PROTOCOL 1. The modifications include:
(§11) 1) each concentration for each compound is tested in a single well;
(§12) 2) compounds are tested at 20, 4, 0.8, 0.16 microgram/ml and additionally in some experiments at 100 and 0.32 microgram/ml;
(§13) 3) samples are pipetted into a 96-well plate for each of the cell lines by a Beckman Biomek 1000 SL robot;
(§14) 4) after fixing with TCA each well is washed with 0.35 ml distilled water twice, not five times;
(§15) 5) after staining with sulforhodamine B each well is washed 3 times, not five times; […]

Human Tumor cell lines = assay: Antiproliferative activity in the panel of human tumor cell lines; type: cell-based; settings: Homo sapiens; average over the 6 tumor cell lines
Method: as §1, §2, §3, §4, §5, §6, §7, §8, §9, §10, §11, §12, §13, §14, §15

A2780/DDP = assay: Antiproliferative activity in human tumor cell lines: A2780/DDP (ovarian); type: cell-based; settings: PROTOCOL 1 and PROTOCOL 2, 48 hours
Method: (§16) The assays are identified as follows:
as §2, §3
(§17) Cultures are renewed after 20 passages with cells from a fresh stock of batch-frozen early passage cells. Cell lines are routinely checked for mycoplasma contamination (Genprobe). In a laminar flow hood, cells (1-5×10^4) are plated into 96-well microtiter plates in a volume of 0.1 ml/well with a bulk microtiter dispenser (Denley). […] Compounds are added using a Tomtec dispenser which simultaneously dispenses from one 96-well plate, containing the drug dilutions, to the plates containing the cells. After two days of continuous drug exposure, 50% cold trichloroacetic acid (TCA) is added to 10% final concentration to fix the cells, and after 60 minutes at 4° C., the TCA is aspirated and the plates are washed 5 times with deionized water using a microtiter plate washer. […] A 0.4% solution of the dye, sulforhodamine B, in […] is added to the plates, and the plates are washed 5 times with 1% glacial acetic acid using the automatic plate washed. The bound stain is solubilized with 0.1 ml of 10 mM Tris base. The optical densities are read from an automatic spectrophotometric plate reader (Dynatech) directly to a main frame computer (VAX 8600).
as §5, §6, §7, §8, §9, §10, §11, §12, §13, §14
(§18) 5) after staining with sulforhodamine B each well is washed 3 times, not five times;
(§19) 6) the growth inhibition (I) as % of control, is calculated using the RS-1 data package (BBN Software), for every concentration of drug, as follows: [formula] wherein: T is optical density measurement for treated cells after 48 hours;
(§20) 7) IC50 of growth inhibition is determined graphically from dose response curves, as is known in the art.

SW620 = assay: Antiproliferative activity in human tumor cell lines: SW620 (colon); type: cell-based; settings: SW-620, SW620 colon tumor, PROTOCOL 1 and PROTOCOL 2, 48 hours, read-out: IC50
Method: as §1, §2, §3, §4, §5, §6, §7, §8, §9, §10, §11, §12, §13, §14, §15

MIP = assay: Antiproliferative activity in human tumor cell lines: MIP (colon); type: cell-based; settings: PROTOCOL 1 and PROTOCOL 2, 48 hours
Method: as §1, §2, §3, §4, §5, §6, §7, §8, §9, §10, §11, §12, §13, §14, §15

[1] = system: Adult Bovine Aortic Endothelial (ABAE) cell line; assay: Antiproliferative activity in ABAE cell line, PROTOCOL 2; type: cell-based; settings: PROTOCOL 2, 48 hours
Method: as §1, §2
Antiproliferative Activity in Human Tumor and Adult Bovine Aortic Endothelial Cell Lines (ABAE)
as §10, §11, §12, §13, §14, §18, §19, §7, §20
Table 1 presents the results depicting the antiproliferative activity of the compounds of Formula I against an Adult Bovine Aortic Endothelial cell line (ABAE), as evaluated by PROTOCOL 1 and 2. The results are presented in terms of IC50 and are as follows.

HTB 161 = assay: Antiproliferative activity in human tumor cell lines: HTB 161 (ovarian); type: cell-based; settings: HTB 161 ovarian tumor, PROTOCOL 1 and PROTOCOL 2, 48 hours
Method: as §16, §2, §3, §17, §5, §6, §7, §8, §9, §10, §11, §12, §13, §14, §18, §19, §20

A2780S = assay: Antiproliferative activity in human tumor cell lines: A2780S (ovarian); type: cell-based; settings: PROTOCOL 1 and PROTOCOL 2, 48 hours
Method: as §16, §2, §3, §17, §5, §6, §7, §8, §9, §10, §11, §12, §13, §14, §18, §19, §20

angiogenesis = settings: Brem et al, cited from earlier work; for inhibition of angiogenesis: WO92/12717
tumor growth = settings: in conjunction with cancer chemotherapy or radiation therapy; Teicher et al; cited from earlier work
[2] = system: Adult Bovine Aortic Endothelial (ABAE) cell line; assay: Antiproliferative activity in ABAE cell line, PROTOCOL 3 (4 day assay); type: cell-based; settings: 4 day assay (PROTOCOL 3)
Method: as §1, §2
Antiproliferative Activity in Adult Bovine Aortic Endothelial (ABAE) Cell Line
ABAE cells are grown in DMEMmedia (Mediatech, Washington, D.C.) supplemented with 10% calf serum (Hyclone). ABAE cells are plated in 24-well dishes at 8,000 cells/well, followed by the addition of increasing concentrations of 7-(hydrogen or di(C1 -C4)alkylamino)-8-halogen-9-(substituted)-6-demethyl-6-deoxytetracycline. After four days, the cells are detached and counted. […] The growth inhibition (I) as % of control is calculated as follows: [formula] wherein: Nc is the number of cells in untreated wells;
Nt is the number of cells in treated wells;
No is the number of plated cells.
IC50 of growth inhibition is determined from the sets of I values plotted by Kaleidograph software (Abelbeck Software).
In addition FIG. 1, presents the dose response curve for the compound of Example 10 for the above ABAE cell line obtained by using PROTOCOL 3.

[3] = Homo sapiens, Caco-2, read-out: IC50

| Compound | IC50 (CACO2; [3]) | IC50 (Human Tumor cell lines) | IC50 (A2780/DDP) | IC50 (SW620) | IC50 (MIP) | IC50 ([1]; Bos taurus, read-out: IC50) | IC50 (HTB 161) | IC50 (A2780S) | inhibition of angiogenesis (angiogenesis) | further results |
| --- | --- | --- | --- | --- | --- | --- | --- | --- | --- | --- |
| CCC(C(=O)Nc1c(Cl)cc2c(c1O)C(=O)C1=C(O)[C@]3(O)C(=O)C(C(N)=O)=C(O)[C@@H](N(C)C)C3CC1C2)N(C)C (stereo partly shown) [Example 18, dihydrochloride] | 11 mg/L | 4.8 mg/L | 3 mg/L | 3 mg/L | 4 mg/L | 16 mg/L | 3 mg/L |  |  |  |
| CC(C(=O)Nc1c(Cl)cc2c(c1O)C(=O)C1=C(O)[C@]3(O)C(=O)C(C(N)=O)=C(O)[C@@H](N(C)C)C3CC1C2)N1CCCC1 (stereo partly drawn) [Example 13, 7S-(7α,10aα)]-N-[9-(Aminocarbonyl)-3-chloro-7-(dimethylamino)-5,5a,6,6a,7,10,10a,12-octahydro-1,8,10a,11-tetrahydroxy-10,12-dioxo-2-naphthacenyl]-α-methyl-1-pyrrolidineacetamide dihydrochloride] | 3 mg/L | 1.3 mg/L | 1 mg/L | 1 mg/L |  | 3 mg/L | 1 mg/L | 1 mg/L |  |  |
| CC(C)NCC(=O)Nc1c(Cl)cc2c(c1O)C(=O)C1=C(O)[C@]3(O)C(=O)C(C(N)=O)=C(O)[C@@H](N(C)C)C3CC1C2 (stereo partly drawn) [Example 15, [4S-(4α,12aα)]-8-Chloro-4-(dimethylamino)-1,4,4a,5,5a,6,11,12a,-octahydro-3,10,12,12a-tetrahydroxy-1,11-dioxo-9-[[[(1-methylethyl)amino]acetyl]amino]-2-naphthacenecarboxamide dihydrochloride] |  |  |  |  |  | < 1 mg/L |  |  |  |  |
| CN(C)[C@@H]1C(O)=C(C(N)=O)C(=O)[C@@]2(O)C(O)=C3C(=O)c4c(O)ccc(Cl)c4[C@@](C)(O)[C@H]3C[C@@H]12 [Chlortetracycline] |  |  |  |  |  |  |  |  | useful as inhibitors of angiogenesis |  |
| CC(C(=O)Nc1c(Cl)cc2c(c1O)C(=O)C1=C(O)[C@]3(O)C(=O)C(C(N)=O)=C(O)[C@@H](N(C)C)C3CC1C2)N1CCCCC1 (stereo partly drawn) [Example 14, 7S-(7α, 10aα)]-N-[9-(Aminocarbonyl)-3-chloro-7-(dimethylamino)-5,5a,6,6a,7,10,10a,12-octahydro-1,8,10a,11-tetrahydroxy-10,12-dioxo-2-naphthacenyl]-α-methyl-1-piperidineacetamide dihydrochloride] | 0.7 mg/L |  | < 0.16 mg/L | < 0.16 mg/L | < 0.16 mg/L | < 0.8 mg/L | < 0.16 mg/L | < 0.16 mg/L |  |  |
| [4S-(4α,12aα)]-8 -Chloro-4-(dimethylamino)-9-[[(2-(dimethylamino) -1-oxopropyl]amino]-1,4,4a,5,5a,6,11,12a-octahydro-3,10,12,12a-tetrahydroxy-1,11-dioxo-9-[[[(1-methylethyl)amino]acetyl]amino]-2-naphthacenecarboxamide dihydrochloride [Example 16] |  |  |  |  |  |  |  |  |  | IC50 (CACO2; dihydrochloride): 4.0 mg/L and 8.0 mg/L; IC50 [1]: 3 mg/L |
| CN(C)c1ccc(O)c2c1C[C@H]1C[C@H]3[C@H](N(C)C)C(O)=C(C(N)=O)C(=O)[C@@]3(O)C(O)=C1C2=O [Minocycline] |  |  |  |  |  |  |  |  | useful as inhibitors of angiogenesis | number of metastases (tumor growth): the number of metastases is reduced; tumor growth (tumor growth): tumor growth is decreased; activity upon incubation with cells [2]: loosing its activity upon incubation with cells; inhibition of angiogenesis compared with combination therapy of heparin and cortisone (angiogenesis; Cancer Research 51, 672-675): inhibits angiogenesis to an extent comparable to that of the combination therapy of heparin and cortisone |
| CCC(C(=O)Nc1c(Cl)cc2c(c1O)C(=O)C1=C(O)[C@]3(O)C(=O)C(C(N)=O)=C(O)[C@@H](N(C)C)C3CC1C2)N1CCCC1 (stereo partly shown) [Example 19, dihydrochloride] | 4 mg/L | 2.3 mg/L | 1 mg/L | 3 mg/L | 3 mg/L | 4 mg/L | 2 mg/L | 1 mg/L |  |  |
| CN(C)[C@@H]1C(O)=C(C(=O)NCNCCCC[C@H](N)C(=O)O)C(=O)[C@@]2(O)C(O)=C3C(=O)c4c(O)cccc4[C@@](C)(O)[C@H]3C[C@@H]12 [Lymecycline] |  |  |  |  |  |  |  |  | useful as inhibitors of angiogenesis |  |
| CN(C)[C@@H]1C(O)=C(C(N)=O)C(=O)[C@@]2(O)C(O)=C3C(=O)c4c(O)ccc(Cl)c4[C@@H](O)[C@H]3C[C@@H]12 [Demeclocycline] |  |  |  |  |  |  |  |  | useful as inhibitors of angiogenesis |  |
